Assay results reported in US20230203056A1, “HETEROCYCLIC COMPOUNDS” (Hoffmann-La Roche Inc., priority 2020, published 2023).

Biological target: T1, MAGL (Homo sapiens, UniProt Q99685)
T1 sequence (Q99685 1-303): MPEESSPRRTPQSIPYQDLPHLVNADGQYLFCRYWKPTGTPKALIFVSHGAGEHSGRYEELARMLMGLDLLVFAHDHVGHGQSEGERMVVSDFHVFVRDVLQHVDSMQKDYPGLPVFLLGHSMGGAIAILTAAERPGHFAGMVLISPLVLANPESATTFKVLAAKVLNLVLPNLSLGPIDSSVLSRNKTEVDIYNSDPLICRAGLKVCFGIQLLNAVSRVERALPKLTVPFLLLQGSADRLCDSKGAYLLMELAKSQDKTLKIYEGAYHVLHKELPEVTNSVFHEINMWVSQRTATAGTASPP
Test: 2-AG assay: MAGL inhibitory activity, hydrolysis of 2-arachidonoylglycerol to arachidonic acid followed by mass spectrometry
Assay type: biochemical
Conditions: 50 pM MAGL, 8 μM 2-arachidonoylglycerol, 15 min preincubation, 30 min incubation at RT
Protocol: Compounds were profiled for MAGL inhibitory activity by determining the enzymatic activity by following the hydrolysis of the natural substrate 2-arachidonoylglycerol resulting in arachidonic acid, which can be followed by mass spectrometry. This assay is hereinafter abbreviated “2-AG assay”.
The 2-AG assay was carried out in 384 well assay plates (PP, Greiner Cat #784201) in a total volume of 20 μL. Compound dilutions were made in 100% DMSO (VWR Chemicals 23500.297) in a polypropylene plate in 3-fold dilution steps to give a final concentration range in the assay from 12.5 μM to 0.8 pM. 0.25 μL compound dilutions (100% DMSO) were added to 9 μL MAGL in assay buffer (50 mM TRIS (GIBCO, 15567-027), 1 mM EDTA (Fluka, 03690-100 mL), 0.01% (v/v) Tween. After shaking, the plate was incubated for 15 min at RT. To start the reaction, 10 μL 2-arachidonoylglycerol in assay buffer was added. The final concentrations in the assay was 50 pM MAGL and 8 μM 2-arachidonoylglyerol. After shaking and 30 min incubation at RT, the reaction was quenched by the addition of 40 μL of acetonitrile containing 4 μM of d8-arachidonic acid. The amount of arachidonic acid was traced by an online SPE system (Agilent Rapidfire) coupled to a triple quadrupole mass spectrometer (Agilent 6460). A C18 SPE cartridge (G9205A) was used in an acetonitrile/water liquid setup. The mass spectrometer was operated in negative electrospray mode following the mass transitions 303.1→259.1 for arachidonic acid and 311.1→267.0 for d8-arachidonic acid. The activity of the compounds was calculated based on the ratio of intensities [arachidonic acid/d8-arachidonic acid].

Row | IC50 | SMILES
1 | 0.008 µM | O=C(N1CC(OCc2ccc(C(F)(F)F)cc2F)C1)N1C[C@@H]2CCc3cn[nH]c3[C@@H]2C1 (racemic) [Example 1, [3-[[2-Fluoro-4-(trifluoromethyl)phenyl]methoxy]azetidin-1-yl]-[rac-(5aR,8aS)-4,5,5a,6,8,8a-hexahydro-1H-pyrrolo[3,4-g]indazol-7-yl]methanone]
2 | 0.067 µM | O=C(N1CC(OCc2ccc(C(F)(F)F)cc2F)C1)N1C[C@@H]2COc3cn[nH]c3[C@@H]2C1 (racemic) [Example 2, [3-[[2-Fluoro-4-(trifluoromethyl)phenyl]methoxy]azetidin-1-yl]-[rac-(1S,9R)-7-oxa-3,4,11-triazatricyclo[7.3.0.0^2,6]dodeca-2(6),4-dien-1l-yl]methanone]
3 | 0.488 µM | O=C(N1C[C@@H]2COc3cn[nH]c3[C@@H]2C1)N1CC2(CC(Cc3ccc(F)cc3F)C2)C1 (single isomer, unassigned) [Example 5, (−)- or (+)-[6-[(2,4-Difluorophenyl)methyl]-2-azaspiro[3.3]heptan-2-yl]-[(1S,9R)-7-oxa-3,4,11-triazatricyclo[7.3.0.0^2,6]dodeca-2(6),4-dien-1l-yl]methanone]
4 | 0.009 µM | O=C(N1C[C@H]2COc3cn[nH]c3[C@H]2C1)N1CC2(CC(Cc3ccc(F)cc3F)C2)C1 (single isomer, unassigned) [Example 6, (+)- or (−)-[6-[(2,4-Difluorophenyl)methyl]-2-azaspiro[3.3]heptan-2-yl]-[(1R,9S)-7-oxa-3,4,11-triazatricyclo[7.3.0.0^2,6]dodeca-2(6),4-dien-11-yl]methanone]
5 | 0.05 µM | O=C(N1CC(OCc2ccc(C(F)(F)F)cc2F)C1)N1C[C@@H]2CCc3nn[nH]c3[C@@H]2C1 (single isomer, unassigned) [Example 7, (−)- or (+)-[3-[[2-Fluoro-4-(trifluoromethyl)phenyl]methoxy]azetidin-1-yl]-[(5aR,8aS)-4,5,5a,6,8,8a-hexahydro-1H-pyrrolo[3,4-e]benzotriazol-7-yl]methanone]
6 | 0.523 µM | O=C(N1CC(OCc2ccc(C(F)(F)F)cc2F)C1)N1C[C@H]2CCc3nn[nH]c3[C@H]2C1 (single isomer, unassigned) [Example 8, (+)- or (−)-[3-[[2-Fluoro-4-(trifluoromethyl)phenyl]methoxy]azetidin-1-yl]-[(5aS,8aR)-4,5,5a,6,8,8a-hexahydro-1H-pyrrolo[3,4-e]benzotriazol-7-yl]methanone]
7 | 2.7 µM | O=C(N1CC(OCc2ccc(C(F)(F)F)cc2F)C1)N1C[C@@H]2OCc3nn[nH]c3[C@@H]2C1 (single isomer, unassigned) [Example 9, (−)- or (+)-[3-[[2-Fluoro-4-(trifluoromethyl)phenyl]methoxy]azetidin-1-yl]-[(1S,9R)-8-oxa-3,4,5,11-tetrazatricyclo[7.3.0.02,6]dodeca-2(6),4-dien-11-yl]methanone]
8 | 1.22 µM | O=C(N1CC(OCc2ccc(C(F)(F)F)cc2F)C1)N1C[C@@H]2c3[nH]nnc3CO[C@@H]2C1 (single isomer, unassigned) [Example 10, (+)- or (−)-[3-[[2-Fluoro-4-(trifluoromethyl)phenyl]methoxy]azetidin-1-yl]-[(1R,9S)-8-oxa-3,4,5,11-tetrazatricyclo[7.3.0.02,6]dodeca-2(6),4-dien-1l-yl]methanone]
9 | 0.013 µM | O=C(N1CC(c2ccc(C3(C(F)(F)F)CC3)cc2)C1)N1C[C@@H]2COc3cn[nH]c3[C@@H]2C1 [Example 3, (−)- or (+)-[(1S,9R)-7-Oxa-3,4,11-triazatricyclo[7.3.0.0^2,6]dodeca-2(6),4-dien-11-yl]-[3-[4-[1-(trifluoromethyl)cyclopropyl]phenyl]azetidin-1-yl]methanone]
10 | 0.917 µM | O=C(N1CC(c2ccc(C3(C(F)(F)F)CC3)cc2)C1)N1C[C@H]2COc3cn[nH]c3[C@H]2C1 [Example 4, (+)- or (−)-[(1R,9S)-7-Oxa-3,4,11-triazatricyclo[7.3.0.0^2,6]dodeca-2(6),4-dien-11-yl]-[3-[4-[1-(trifluoromethyl)cyclopropyl]phenyl]azetidin-1-yl]methanone]
